Values of other authors in article PMC8025584, “Identification of multipotent drugs for COVID-19 therapeutics with the evaluation of their SARS-CoV2 inhibitory activity” (Computational and Structural Biotechnology Journal, 2021).
Structures can show the parent of a compound that is named as a salt. Where two headings read alike, the source gives them in different places.

Tested on: differentially expressed human proteins in COVID-19
Settings: cited from earlier work
[1] = gene HCK, drug-gene interaction listed in DGIdb export, ref DGIdb
[2] = gene TNF, drug-gene interaction listed in DGIdb export, ref DGIdb

Q: With `COC(=O)c1ccc2c(c1)NC(=O)/C2=C(\Nc1ccc(N(C)C(=O)CN2CCN(C)CC2)cc1)c1ccccc1` [NINTEDANIB, reference compound] as the molecule, how does the interaction_types (gene FGR, ref DGIdb) read?
A: inhibitor

Q: And the interaction_types [1]?
A: inhibitor

Q: For `COC1=CC(c2cc3ccccc3[nH]2)=N/C1=C\c1[nH]c(C)cc1C` [OBATOCLAX MESYLATE], which interaction_types (gene BCL2A1, ref DGIdb) is on record?
A: inhibitor

Q: Which interaction_types (gene S100A12, ref DGIdb) does the source give for `CN(C)CC/C=C1/c2ccccc2COc2ccc(CC(=O)O)cc21` [OLOPATADINE, reference compound] here?
A: antagonist

Q: Which interaction_types [1] does the source give for `Cc1ccc(-n2nc(C(C)(C)C)cc2NC(=O)NCc2cc(F)ccc2Oc2ccc3c(cnn3CCO)c2)cc1` [PEXMETINIB] here?
A: inhibitor

Q: Which interaction_types (gene PTK2B, ref DGIdb) does the source give for `CN(c1ncccc1CNc1nc(Nc2ccc3c(c2)CC(=O)N3)ncc1C(F)(F)F)S(C)(=O)=O` [PF-00562271] here?
A: inhibitor

Q: Which interaction_types (gene AQP9, ref DGIdb) does the source give for `O=C(CCc1ccc(O)cc1)c1c(O)cc(O)cc1O` [PHLORETIN] here?
A: inhibitor

Q: Which interaction_types (gene TUBA4A, ref DGIdb) does the source give for `CC(C)(C)c1[nH]cnc1/C=c1\[nH]c(=O)/c(=C/c2ccccc2)[nH]c1=O` [PLINABULIN] here?
A: inhibitor

Q: Which interaction_types (gene TUBA4A, ref DGIdb) does the source give for `COc1cc([C@@H]2c3cc4c(cc3[C@H](O)[C@H]3COC(=O)[C@H]23)OCO4)cc(OC)c1OC` [PODOFILOX, reference compound] here?
A: inhibitor

Q: With `CC1(C)OC(c2ccc(S(N)(=O)=O)cc2)=C(c2cccc(F)c2)C1=O` [POLMACOXIB] as the molecule, how does the interaction_types (gene CA1, ref DGIdb) read?
A: inhibitor

Q: With `Nc1cccc2c1C(=O)N(C1CCC(=O)NC1=O)C2=O` (stereo not shown) [POMALIDOMIDE] as the molecule, how does the interaction_types [2] read?
A: inhibitor

Q: Which interaction_types (gene KCNH7, ref DGIdb) does the source give for `COc1cc2nc(N3CCN(C(=O)c4ccco4)CC3)nc(N)c2cc1OC` [PRAZOSIN] here?
A: inhibitor

Q: Which interaction_types does the source give for `CC(C)C[C@H](CN)CC(=O)O` [PREGABALIN, reference compound] here?
A: modulator¦inhibitor

Q: For `NC(=O)c1cnc(N[C@@H]2CCCC[C@@H]2N)nc1Nc1cccc(-n2nccn2)c1` [PRT-2607], which interaction_types (gene FGR, ref DGIdb) is on record?
A: inhibitor

Q: Which interaction_types [2] does the source give for `CN[C@@H](C)[C@@H](O)c1ccccc1` [PSEUDOEPHEDRINE] here?
A: inhibitor

Q: Which interaction_types (gene TUBA4A, ref DGIdb) does the source give for `CC(=O)O[C@H]1C(=O)[C@@]2(C)[C@H]([C@H](OC(=O)c3ccccc3)[C@]3(O)C[C@H](OC(=O)[C@H](O)[C@@H](NC(=O)c4ccccc4)c4ccccc4)C(C)=C1C3(C)C)[C@]1(OC(C)=O)CO[C@@H]1C[C@@H]2O` [Paclitaxel, reference compound] here?
A: inhibitor

Q: Which interaction_types (gene CA1, ref DGIdb) does the source give for `CCC1NC(=O)c2cc(S(N)(=O)=O)c(Cl)cc2N1` (stereo not shown) [QUINETHAZONE] here?
A: inhibitor

Q: With `CCCCCc1cccc(CC(=O)O)c1` [SETOGEPRAM] as the molecule, how does the interaction_types (gene GPR84, ref DGIdb) read?
A: antagonist

Q: With `CCN1CCCC1CNC(=O)c1cc(S(N)(=O)=O)ccc1OC` (stereo not shown) [SULPIRIDE] as the molecule, how does the interaction_types (gene CA1, ref DGIdb) read?
A: inhibitor

Q: For `Cc1ccc(C(=O)Nc2ccc(S(=O)(=O)O)c3cc(S(=O)(=O)O)cc(S(=O)(=O)O)c23)cc1NC(=O)c1cccc(NC(=O)Nc2cccc(C(=O)Nc3cc(C(=O)Nc4ccc(S(=O)(=O)O)c5cc(S(=O)(=O)O)cc(S(=O)(=O)O)c45)ccc3C)c2)c1` [SURAMIN], which interaction_types (gene P2RY13, ref DGIdb) is on record?
A: antagonist

Q: Which interaction_types (gene PSENEN, ref DGIdb) does the source give for `C[C@@H](C(=O)O)c1ccc(-c2ccccc2)c(F)c1` [TARENFLURBIL] here?
A: modulator

Q: Which interaction_types (gene RXRB, ref DGIdb) does the source give for `CCOC(=O)c1ccc(C#Cc2ccc3c(c2)C(C)(C)CCS3)nc1` [TAZAROTENE, reference compound] here?
A: agonist

Q: For `COc1cc2nc(N3CCN(C(=O)C4CCCO4)CC3)nc(N)c2cc1OC` (stereo not shown) [TERAZOSIN], which interaction_types (gene KCNH7, ref DGIdb) is on record?
A: inhibitor

Q: For `C[C@]12C=CC(=O)C=C1CC[C@@H]1[C@@H]2CC[C@]2(C)OC(=O)CC[C@@H]12` [TESTOLACTONE], which interaction_types (gene CYP19A1, ref DGIdb) is on record?
A: inhibitor

Q: For `Cc1cc(-c2cc(OC(=O)c3ccccc3)ccc2Cl)cc2nnc(Nc3ccc(OCCN4CCCC4)cc3)nc12` [TG100-801], which interaction_types (gene FGR, ref DGIdb) is on record?
A: inhibitor

Q: And the interaction_types [1]?
A: inhibitor

Q: With `O=C1CCC(N2C(=O)c3ccccc3C2=O)C(=O)N1` (stereo not shown) [THALIDOMIDE, reference compound] as the molecule, how does the interaction_types [2] read?
A: inhibitor

Q: Which interaction_types (gene CA1, ref DGIdb) does the source give for `CC1(C)O[C@@H]2[C@@H](CO[C@@]3(COS(N)(=O)=O)OC(C)(C)O[C@@H]23)O1` [TOPIRAMATE] here?
A: inhibitor
